Measurements as given in patent US12714708B2, “Compounds with anti-tumor activity against cancer cells bearing HER2 exon 19 mutations” (Board of Regents, The University of Texas System, priority 2019, dated 2026).

Experiments:
[1] = test system: Ba/F3 HER2 L755P mutant cells; test: Cell Titer Glo cell viability, Ba/F3 cells expressing HER2 L755P; assay type: cell-based; conditions: for IC50: Mus musculus, BaF3, Ba/F3 HER2 L755P mutant cells; for inhibition of cell viability: Ba/F3 cells expressing HER2 L755P protein
Description: Ba/F3 cells expressing exon 19 point mutation L755P were generated.
Cell line generation and IL-3 deprivation: Ba/F3 cell line, was cultured in complete RPMI-1640 (R8758; Sigma Life Science) media supplemented with L-glutamine, 10% heat inactivated FBS (Gibco), 1% penicillin/streptomycin (Sigma Life Science), and 10 ng/ml mouse IL-3 (R&D systems) under sterile conditions. Stable cell lines were generated by retroviral transduction of Ba/F3 cell line for 12 hours. Retroviruses were generated by transfecting pBabe-Puro based vectors into the Phoenix 293T ampho packing cell line (Orbigen) using Lipofectamine 2000 (Invitrogen). 72 hours after transduction, 2 μg/ml puromycin (Invitrogen) was added to the media. After 5 days of selection, cells were stained with FITC-HER2 (Biolegend) and sorted via FACS. Cell lines were then grown in the absence of IL-3 for 15 days and cell viability was determined every 3 days using the Cell Titer Glo assay (Progema). Resulting stable cell lines were maintained in complete RPMI-1640 media described above without IL-3. […] To generate HER2 […] cell lines, cells were transduced with c.2264T>C (created from Bioinnovatise from pBabe-puro HER WT from Addgene (#40978)).
(§1) Cell viability assay and IC50 estimation: Cell viability was determined using the Cell Titer Glo assay (Promega) as previously described (Robichaux et al., 2018). Briefly, 2000-3000 cells per well were plated in 384-well plates (Greiner Bio-One) in technical triplicate. Cells were treated with seven different concentrations of tyrosine kinase inhibitors or vehicle alone at a final volume of 40 μL per well. After 3 days, 11 μL of Cell Titer Glo was added to each well. Plates were shaken for 15 minutes, and bioluminescence was determined using a FLUOstar OPTIMA multi-mode micro-plate reader (BMG LABTECH). Bioluminescence values were normalized to DMSO treated cells, and normalized values were plotted in GraphPad Prism using non-linear regression fit to normalized data with a variable slope. IC50 values were calculated by GraphPad Prism at 50% inhibition.

[2] = test system: HER2 exon 19 mutant Ba/F3 cell lines; test: Cell Titer Glo cell viability, Ba/F3 cell lines expressing HER2 exon 19 mutations; assay type: cell-based
Description: In addition, several other HER2 exon 19 mutations including D769Y, D769N, D769H, L755S, and R678Q were tested for their sensitivity to different TKIs including poziotinib.
Cell viability of stable Ba/F3 cell lines expressing HER2 exon 19 mutations grown in IL-3 free conditions was measured for 14 days. Cell viability was determined every 3 days by the Cell Titer Glo assay (FIG. 4). […] Average IC50 values of Ba/F3 cells expressing L755S or L755P with indicated inhibitors were measured (FIG. 5C).
Cell line generation and IL-3 deprivation: Ba/F3 cell line, was cultured in complete RPMI-1640 (R8758; Sigma Life Science) media supplemented with L-glutamine, 10% heat inactivated FBS (Gibco), 1% penicillin/streptomycin (Sigma Life Science), and 10 ng/ml mouse IL-3 (R&D systems) under sterile conditions. Stable cell lines were generated by retroviral transduction of Ba/F3 cell line for 12 hours. Retroviruses were generated by transfecting pBabe-Puro based vectors into the Phoenix 293T ampho packing cell line (Orbigen) using Lipofectamine 2000 (Invitrogen). 72 hours after transduction, 2 μg/ml puromycin (Invitrogen) was added to the media. After 5 days of selection, cells were stained with FITC-HER2 (Biolegend) and sorted via FACS. Cell lines were then grown in the absence of IL-3 for 15 days and cell viability was determined every 3 days using the Cell Titer Glo assay (Progema). Resulting stable cell lines were maintained in complete RPMI-1640 media described above without IL-3. Cell line identity was confirmed by DNA fingerprinting via short tandem repeats using the PowerPlex 1.2 kit (Promega). Fingerprinting results were compared with reference fingerprints maintained by the primary source of the cell line. All cell lines were free of mycoplasma. […]
Cell viability assay and IC50 estimation: Cell viability was determined using the Cell Titer Glo assay (Promega) as previously described (Robichaux et al., 2018). […] Plates were shaken for 15 minutes, and bioluminescence was determined using a FLUOstar OPTIMA multi-mode micro-plate reader (BMG LABTECH). […]

[3] = test system: CW-2 cells (HER2 L755S) xenografts; test: CW-2 cell line xenograft tumor growth study; assay type: in vivo, mice; conditions: for Tukey's multiple comparisons test Summary: Poziotinib 5 mg/kg
Description: In vivo xenograft studies: CW-2 cell line xenografts were created by injecting 1×10^6 cells in 50% matrigel into 6-week-old female nu/nu nude mice. When tumors reached 350 mm^3 mice were randomized into 4 groups: 20 mg/kg afatinib, 5 mg/kg poziotinib, 30 mg/kg neratinib, or vehicle control (0.5% Methylcellulose, 2% Tween-80 in dH2O). Tumor volumes were measured three times per week. Mice received drug Monday-Friday (5 days per week), but began dosing on Wednesday allowing for a 2-day holiday after the first 3 days of dosing.

CW-2 colorectal cells = test: Cell viability of CW-2 cells treated with inhibitors; assay type: cell-based, human; conditions: various concentrations, 72 hours (FIG. 6A)
Description: A mouse study was performed with mice inoculated with CW-2 cells treated with poziotinib, afatinib, or neratinib. […] Thus, poziotinib, as well as structurally similar inhibitors, are potent inhibitors of HER2 exon 19 mutations and can be used as therapeutics to overcome de novo drug resistance.
as §1
Human cell lines: MCF10A cells were purchased from ATCC and were cultured in DMEM/F12 media supplemented with 1% penicillin/streptomycin, 5% horse serum (sigma), 20 ng/ml EGF, […] hydrocortisone, and 10 ug/ml insulin. […]

[4] = Day 10, vs. Vehicle, Afatinib 20 mg/kg, Neratinib 30 mg/kg, two-way ANOVA of FIG. 6B
[5] = Day 13, vs. Vehicle, Afatinib 20 mg/kg, Neratinib 30 mg/kg, two-way ANOVA of FIG. 6B

## CN(C)C/C=C/C(=O)Nc1cc2c(Nc3ccc(F)c(Cl)c3)ncnc2cc1O[C@H]1CCOC1 [afatinib]
[1]
  IC50: 13 nM

## CS(=O)(=O)CCNCc1ccc(-c2ccc3ncnc(Nc4ccc(OCc5cccc(F)c5)c(Cl)c4)c3c2)o1 [lapatinib]
[1]
  inhibition of cell viability: failed to inhibit cell viability

## Cc1cc(C(=O)Nc2nc3cccc(Cl)c3n2[C@@H]2CCCCN(C(=O)/C=C/CN(C)C)C2)ccn1 [EGF-816]
[1]
  inhibition of cell viability: failed to inhibit cell viability

## C=CC(=O)N1CCC(Oc2cc3c(Nc4ccc(Cl)c(Cl)c4F)ncnc3cc2OC)CC1 [poziotinib, 1-[4-[4-(3,4-dichloro-2-fluoroanilino)-7-methoxyquinazolin-6-yl]oxypiperidin-1-yl]prop-2-en-1-one]
[2]; Ba/F3 cells expressing HER2 exon 19 mutations incl. L755S or L755P, 72 hours of drug treatment
  IC50 values as compared to the other inhibitors tested: lowest IC50 values
[2]; HER2 exon 19 mutants
  concentrations inhibiting HER2 exon 19 mutants: low nanomolar concentrations
[2]; HER2 exon 19 mutations D769Y, D769N, D769H, L755S, R678Q (FIG. 3)
  inhibition of growth of mutant cells: inhibited the growth of these mutant cells
[1]
  inhibition of cell viability: inhibition of cell viability
  IC50: 3 nM
[3]; Day 10, vs. Afatinib (20 mg/kg)
  Tukey's multiple comparisons test Summary: ns
[3]; [4]
  Tukey's multiple comparisons test Summary: ns
[3]; Day 13, vs. Afatinib (20 mg/kg)
  Tukey's multiple comparisons test Summary: ns
[3]; Day 13, vs. Neratinib (30 mg/kg), Afatinib 20 mg/kg
  Tukey's multiple comparisons test Summary: ns
[3]; [5]
  Tukey's multiple comparisons test Summary: ns
[3]; Day 15, vs. Afatinib (20 mg/kg)
  Tukey's multiple comparisons test Summary: ns
[3]; Day 17, vs. Afatinib (20 mg/kg)
  Tukey's multiple comparisons test Summary: ns
[3]; mice inoculated with CW-2 cells, 5 mg/kg (FIG. 6C)
  Tumor growth: significantly decreased
CW-2 colorectal cells
  decrease in cell viability: highest decrease in cell viability

## CCOc1cc2ncc(C#N)c(Nc3ccc(OCc4ccccn4)c(Cl)c3)c2cc1NC(=O)/C=C/CN(C)C [neratinib]
[3]; [4]
  Tukey's multiple comparisons test Summary: ns
[3]; [5]
  Tukey's multiple comparisons test Summary: ns
[3]; Day 15, vs. Vehicle, Afatinib 20 mg/kg, Neratinib 30 mg/kg, two-way ANOVA of FIG. 6B
  Tukey's multiple comparisons test Summary: ns
[3]; Day 17, vs. Vehicle, Afatinib 20 mg/kg, Neratinib 30 mg/kg, two-way ANOVA of FIG. 6B
  Tukey's multiple comparisons test Summary: ns
